Test results: publication PMC10644352, “Bromodomain Factor 5 as a Target for Antileishmanial Drug Discovery” (ACS Infectious Diseases, 2023)

What was measured:
[1] = target: T1, bromodomain factor 5 (LdBDF5), first bromodomain BD5.1 (Leishmania donovani, UniProt A0ACM8QMJ0); test: ITC (also MST Kd […], FP competition IC50 […], TSA, waterLOGSY/STD/CPMG NMR); assay type: binding
T1 construct: gene CGC21_36735; BD5.1 (first bromodomain of the N-terminal tandem repeat)

[2] = target: T2, bromodomain factor 5 (LdBDF5), second bromodomain BD5.2 (Leishmania donovani, UniProt A0ACM8QMJ0); test: FP competition (also TSA shift; waterLOGSY and CPMG NMR positive, STD inconclusive); assay type: binding
T2 construct: gene CGC21_36735; BD5.2 (second bromodomain of the N-terminal tandem repeat)
T2 sequence (A0ACM8QMJ0 161-300): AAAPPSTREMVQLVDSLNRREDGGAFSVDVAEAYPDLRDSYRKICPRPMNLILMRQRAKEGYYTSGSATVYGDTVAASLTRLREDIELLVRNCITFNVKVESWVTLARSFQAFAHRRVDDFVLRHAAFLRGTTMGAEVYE

Row | SMILES | Kd [1] | IC50 [2]
1 | COc1ccc(CCc2nc3cc(-c4c(C)noc4C)ccc3n2C[C@H](C)N2CCOCC2)cc1Cl [SGC–CBP30] | 0.281 ± 0.0123 µM | –
2 | CCn1cc(-c2cccc(C(F)(F)F)c2)c2sc(C(=N)NC3CCS(=O)(=O)CC3)cc2c1=O [I-BRD9] | – | 24.7 ± 6.2 µM
